Assays:
Format in all cases: cell-based
[1] = tested on: Citrobacter ssp strain susceptible to ampicillin and ceftriaxone; assay: Susceptibility testing by MALDI-TOF mass spectra of culture supernatant, Citrobacter ssp strain susceptible to ampicillin and ceftriaxone; details: treatment with 8 mg/L, FIG. 4
Procedure: (§1) In a first process step 10, approximately ten colonies of microorganisms of the bacterial type Enterobacteriaceae are added to 1 mL of a liquid Müller-Hinton broth nutrient medium. The turbidity of the microorganisms in the liquid nutrient medium is 0.5 on McFarland standards, corresponding to approximately 1.5×10^8 colony forming units/mL.
(§2) In a second process step 20, 5 μL of 5-25 mM, especially 25 mM of a water-soluble salt of malic acid or ascorbic acid, for example sodium malate as an enhancer for Enterobacteriaceae family bacteria is added into the liquid nutrient medium. The enhancer may also be added into the liquid nutrient medium in solid form.
(§3) In a third process step 30, the microorganisms in the nutrient medium are pre-incubated at 37° C. for 30 minutes.
(§4) In a fourth process step 40, a quantity of a chemical agent or antibiotic equal to the threshold level of the given microorganism according to the Clinical and Laboratory Standards Institute is added to the microorganisms in the liquid nutrient medium.
(§5) In a fifth process step 50, the microorganisms in the nutrient medium are incubated at 37° C. for 60 minutes.
(§6) In a sixth process step 60, the microorganisms are removed from the nutrient medium by centrifugation at 10′000 g or 15′000 g for 5 minutes at room temperature. The remaining supernatant is collected in a new experimental tube. […]

[2] = tested on: Escherichia coli strain resistant to ampicillin and ceftriaxone; assay: Susceptibility testing by MALDI-TOF mass spectra of culture supernatant, Escherichia coli strain resistant to ampicillin and ceftriaxone; details: treatment with 8 mg/L; resistant E. coli strain; FIG. 3
Procedure: as §1, §2, §3, §4, §5, §6

[3] = tested on: Escherichia coli strain susceptible to ampicillin and ceftriaxone; assay: Susceptibility testing by MALDI-TOF mass spectra of culture supernatant, Escherichia coli strain susceptible to ampicillin and ceftriaxone; details: treatment with 8 mg/L; susceptible E. coli strain; FIG. 2
Procedure: as §1, §2, §3, §4, §5, §6

Row | SMILES | effect on bacteria as seen in mass spectrum of supernatant (protein/peptide signals) [1] | effect on bacteria as seen in mass spectrum of supernatant (protein/peptide signals) [2] | effect on bacteria as seen in mass spectrum of supernatant (protein/peptide signals) [3]
1 | CC1(C)S[C@@H]2[C@H](NC(=O)[C@H](N)c3ccccc3)C(=O)N2[C@H]1C(=O)O [ampicillin] | has been destroyed | no further significant signal | has been destroyed
2 | CO/N=C(\C(=O)N[C@@H]1C(=O)N2C(C(=O)O)=C(CSc3nc(=O)c(=O)[nH]n3C)CS[C@H]12)c1csc(N)n1 [ceftriaxone] | has been destroyed | no further significant signal | has been destroyed
